# Source: US20110076723A1, “ANTIBODY-PEPTIDE FUSED SYNERGIBODY” (SAMSUNG ELECTRONICS CO., LTD., priority 2008, published 2011)
# Where a SMILES comes first, the peptide text is derived from it. Bridges are numbered along the chain shown (N, C = ends).
# Test system: HUVEC
# Experiment: Cell-based functional assay, endothelial cell tube formation (BD BioCoat Angiogenesis System)
# Design: species or system human
# Conditions: 5 μM synthesized peptide, 18 hours; unrelated control group 12,227 ± 1,232
# Method: Chimeric antibodies may be screened by functional assays such as cell-based assay for inhibition activity. In this example, BD BioCoat™ Angiogenesis System-Endothelial Cell Tube Formation (BD Biosciences) is used. BD Falcon 96-well Black/Clear plate coated with BD Matrigel Matrix that had been stored at −20° C. is slowly melted at 4° C. for 6 hours, and the mat cover of the plate is removed inside a sterile clean bench. Then it is left at 37° C. , 5% CO2 for 30 minutes so that the Matrigel™ Matrix would form polymers. Then it is made into a suspension by treating HUVEC, cultured on a petridish containing EGM-2 MV (Lonza) medium added with 10% fetal bovine serum to 70 to 80% confluence, with 0.5% Trypsin-EDTA (Gibco). Then it is resuspended in a culture medium containing 10% fetal bovine serum to a cell concentration of 4×10^5 cells/ml. At this time, 5 μM of each anti-Ang-2 chimeric antibodies expressed and purified in Section 5 above are also added and resuspended. Then 50 μl (about 2×10^4 cells) of each of the suspension is added to each well of the plate and incubated at 37° C. , 5% CO2 for 18 hours. Then the medium is removed and each well is washed twice with 100 μl of Hanks' balanced salt solution (HBSS, Invitrogen) ensuring that the tubes of the cells formed on BD Matrigel™ Matrix are not damaged. 50 μl of calcein AM (BD sciences) dissolved in HBSS at the concentration of 8 μg/ml is added to each well. The plate is then left to react at 37° C., 5% CO2 for 30 minutes and the calcein AM (BD sciences) solution is removed and washed twice with HBSS. Lastly, an image of the length of the entire tube of HUVEC formed on BD Matrigel™ Matrix is obtained on a fluorescent microscope and analyzed by using MetaMorph® software (Universal Imaging Corporation™, http://www.moleculardevices.com).
# The peptides synthesized in Section 6A above are screened by cell-based functional assay for inhibition activity. The method described in Example 1, Section 7 is used, except that 5 μM synthesized peptides are added instead of anti-Ang-2 antibodies.
# The fused protein synergibodies prepared in Section 1 above are screened using cell-based functional assay for inhibition activity. The method described in Example 1, Section 7 is used, except that, in this example, 5 μM of fused protein synergibodies are added instead of anti-Ang-2 antibodies.
row,SMILES,Length of the entire tube of HUVEC (2 × 10^4 cells) (pixels)
1,CSCC[C@H](NC(=O)[C@@H]1CSSC[C@H](NC(=O)[C@H](CC(C)C)NC(=O)[C@H](CC(=O)O)NC(=O)[C@H](CC(=O)O)NC(=O)[C@H](CO)NC(=O)CNC(=O)[C@@H](N)[C@@H](C)O)C(=O)N[C@@H](Cc2ccc(O)cc2)C(=O)N[C@@H]([C@@H](C)O)C(=O)N[C@@H](Cc2ccccc2)C(=O)N2CCC[C@H]2C(=O)N1)C(=O)N[C@@H](Cc1c[nH]cn1)C(=O)N[C@@H](Cc1ccc(O)cc1)C(=O)O [DTN6VEGFR-2-1] (H-TGSDDLCYTFPCMHY-OH; disulfide 7-12; N-terminus and C-terminus assumed),"11,093 ± 1,308 pixels"
2,CC(C)C[C@@H]1NC(=O)CNC(=O)[C@H](Cc2c[nH]c3ccccc23)NC(=O)[C@H](C)NC(=O)[C@H](CCCCN)NC(=O)[C@@H](NC(=O)[C@H](Cc2c[nH]c3ccccc23)NC(=O)[C@H](Cc2ccc(O)cc2)NC(=O)[C@H](C)NC(=O)CNC(=O)[C@H](C)NC(=O)[C@@H](N)CCC(=O)O)CSSC[C@@H](C(=O)N[C@@H](CC(C)C)C(=O)N[C@H](C(=O)N[C@H](C(=O)O)[C@@H](C)O)C(C)C)NC(=O)[C@@H]2CCCN2C(=O)[C@H](CO)NC1=O [DTN9VEGFR-2-3] (H-EAGAYWCKAWGLSPCLVT-OH; disulfide 7-15; N-terminus and C-terminus assumed),"12,101 ± 869 pixels"
3,CC[C@H](C)[C@@H]1NC(=O)[C@H](Cc2c[nH]c3ccccc23)NC(=O)[C@H](CCC(N)=O)NC(=O)[C@H](Cc2ccc(O)cc2)NC(=O)[C@H](CCCNC(=N)N)NC(=O)[C@H](CCSC)NC(=O)[C@H](CC(N)=O)NC(=O)[C@H](CC(C)C)NC(=O)[C@H](Cc2c[nH]cn2)NC(=O)[C@@H](NC(=O)[C@H](Cc2ccc(O)cc2)NC(=O)CNC(=O)[C@H](CCC(N)=O)NC(=O)[C@H](CO)NC(=O)CNC(=O)[C@@H]2CCCN2)CSSC[C@@H](C(=O)N[C@@H](CC(=O)O)C(=O)N[C@@H](CO)C(=O)N[C@@H](CCC(=O)O)C(=O)O)NC1=O [DTN11VEGFR-2-5] (H-PGSQGYCHLNMRYQWICDSE-OH; disulfide 7-17; N-terminus and C-terminus assumed),"11,896 ± 1,159 pixels"
4,CSCC[C@H](NC(=O)[C@H](CCCNC(=N)N)NC(=O)CNC(=O)[C@H](CO)NC(=O)CNC(=O)[C@@H](N)[C@@H](C)O)C(=O)N[C@H]1CSSC[C@@H](C(=O)N[C@@H](Cc2c[nH]c3ccccc23)C(=O)N[C@@H](Cc2ccccc2)C(=O)N[C@H](C(=O)O)[C@@H](C)O)NC(=O)[C@H](CC(N)=O)NC(=O)[C@H]([C@@H](C)O)NC(=O)[C@@H]2CCCN2C(=O)[C@@H]2CCCN2C(=O)CNC(=O)[C@H](CO)NC(=O)CNC(=O)[C@H](CC(=O)O)NC1=O [DTN10VEGFR-2-4] (H-TGSGRMCDGSGPPTNCWFT-OH; disulfide 7-16; N-terminus and C-terminus assumed),"10,773 ± 992 pixels"
5,C[C@H](NC(=O)[C@@H](N)CCC(=O)O)C(=O)NCC(=O)N[C@@H](CCCCN)C(=O)N[C@@H](CCC(=O)O)C(=O)N[C@H](C(=O)N[C@H]1CSSC[C@@H](C(=O)N2CCC[C@H]2C(=O)N[C@@H](CCCNC(=N)N)C(=O)N2CCC[C@H]2C(=O)O)NC(=O)[C@H](Cc2ccc(O)cc2)NC(=O)[C@H](CCC(N)=O)NC(=O)[C@H](Cc2c[nH]c3ccccc23)NC(=O)[C@H](CCC(=O)O)NC(=O)[C@H](Cc2ccc(O)cc2)NC(=O)CNC1=O)[C@@H](C)O [DTN8VEGFR-2-2] (H-EAGKETCGYEWQYCPRP-OH; disulfide 7-14; N-terminus and C-terminus assumed),"10,891 ± 1,014 pixels"
